Reference: US20250304549A1, “HYDROXYAMIDE DERIVATIVE AND USE THEREOF” (SICHUAN HUIYU PHARMACEUTICAL CO., LTD., priority 2022, published 2025)
Structures can show the parent of a compound that is named as a salt.

Key:
[1] = molecular target: HDAC8 (Homo sapiens (Human), UniProt Q9BY41); test: In vitro enzyme inhibition assay - HDAC (HDAC-Glo I/II), HDAC8; format: biochemical; details: read-out: HDAC IC50 (nM) HDAC 8
Outline: (§1)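 Eight compound concentrations (5-fold steps from a 1 mM DMSO stock) tested against pan-HDAC, HDAC1 and HDAC8 with HDAC-Glo I/II reagents, luminescence read-out. Percent inhibition normalized to no-inhibitor and no-enzyme wells; IC50 derived by four-parameter logistic fit.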

[2] = system: NCI-H69 cells; test: In vitro cell inhibition assay - NCI-H69 cell proliferation (CellTiter-Glo); format: cell-based; details: Homo sapiens, NCI-H69, H69 small cell lung cancer cell proliferation
Outline: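 CellTiter-Glo luminescence measured viability after a 7-day, 37° C. exposure of NCI-H69 cells (1×10^3/well) to an 8-point, 5-fold dilution series in RPMI-640/20% FBS. Inhibition was normalised to untreated and cell-free wells and IC50 derived by curve fitting.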

[3] = molecular target: LSD1 (Homo sapiens (Human), UniProt O60341); test: In vitro enzyme inhibition assay - LSD1 (HTRF); format: biochemical
[4] = system: NCI-H526 cells; test: In vitro cell inhibition assay - NCI-H526 cell proliferation (CellTiter-Glo); format: cell-based; details: Homo sapiens, NCI-H526, 120 h, H526 small cell lung cancer cell proliferation, 5 days
Description: 6. In Vitro Cell Inhibition Assay—NCI-H526 Cell Proliferation
The inhibitory effect of the compounds on cell proliferation was assessed by detecting the number of viable cells using CellTiter-Glo® reagent. NCI-H526 cells in the logarithmic growth phase were collected and inoculated into transparent bottom 96-well plates at a density 1×10^3 cells per well with 100 μL of medium, and incubated at 37° C., 5% CO2 overnight. The compounds were sequentially diluted in a 5-fold concentration gradient with DMSO to obtain 8 different concentrations. These were then diluted with RPMI-640 (containing 10% FBS) cell culture medium to obtain the compound working solution (2×), which was added to the cell supernatant at 100 μL per well. The incubation continued for 5 days at 37° C., 5% CO2. The plate was then removed and equilibrated at room temperature (25° C.) along with the CellTiter-Glo® mixing reagent for 10-30 minutes; 80 μL of the culture medium was carefully aspirated from each well, and 80 μL of CellTiter-Glo® reagent was added. The cells were thoroughly mixed with the CellTiter-Glo® mixing reagent using a microplate shaker for 2 min. and then incubated at room temperature for 10 min. The 96-well plate was subsequently placed on a multifunctional microplate reader to record the Luminescence values (RLU).
The inhibition rate was calculated using the following formula: […]
Note: ‘Negative’ refers to the group without inhibitors; ‘Blank’ refers to the group without cells.
The IC50 value was determined by fitting the inhibition rate by GraphPad Prism software.

[5] = molecular target: pan-HDAC; test: In vitro enzyme inhibition assay - HDAC (HDAC-Glo I/II), pan-HDAC; format: biochemical
Outline: as §1

[6] = system: NCI-H1417 cells; test: In vitro cell inhibition assay - H1417 cell proliferation (CellTiter-Glo); format: cell-based; details: Homo sapiens, NCI-H1417, H1417 small cell lung cancer cell proliferation
Outline: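 Cells exposed to 8 compound concentrations (5-fold dilutions) in BEGM with 10% FBS for 7 days at 37° C., 5% CO2. Viable cells measured by CellTiter-Glo luminescence; inhibition versus no-inhibitor and no-cell controls, IC50 fitted.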

Sequence of HDAC8 (Q9BY41 whole entry): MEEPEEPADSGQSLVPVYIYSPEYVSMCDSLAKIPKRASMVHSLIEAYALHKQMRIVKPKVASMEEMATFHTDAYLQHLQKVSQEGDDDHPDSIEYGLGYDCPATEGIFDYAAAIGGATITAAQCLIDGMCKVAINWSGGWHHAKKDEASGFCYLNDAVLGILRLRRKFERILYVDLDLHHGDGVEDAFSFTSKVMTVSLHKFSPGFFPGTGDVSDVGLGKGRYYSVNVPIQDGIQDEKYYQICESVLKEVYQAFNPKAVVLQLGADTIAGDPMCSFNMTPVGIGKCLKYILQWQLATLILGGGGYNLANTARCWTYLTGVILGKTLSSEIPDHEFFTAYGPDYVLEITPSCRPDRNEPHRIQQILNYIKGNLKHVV

IC50 [1] [nM] | IC50 [2] [nM] | IC50 [3] [nM] | IC50 [4] [nM] | IC50 [5] [nM] | IC50 [6] [nM] | SMILES
 | 7.82 | 1.54 | 11 | 0.68 | 3.39 | COc1cc(F)c(-c2cnc(N3CCC(NCc4ccc(/C=C/C(=O)NO)cc4)CC3)c(C#N)c2-c2ccc(C#N)nc2)cc1O [Example 255, (E)-3-(4-(((1-(3′,6-Dicyano-5′-(2-fluoro-5-hydroxy-4-methoxyphenyl)-[3,4′-bipyridin]-2′-yl)piperidin-4-yl)amino)methyl)phenyl)-N-hydroxyacrylamide formate]
 | 1.58 | 147 | 2.22 | 0.27 | 2.03 | COc1ccc(-c2cnc(N3CCC(NCc4ccc(/C=C/C(=O)NO)cc4)CC3)c(F)c2-c2ccc(C#N)nc2)cc1O [Example 268, (E)-3-(4-(((1-(6-Cyano-3′-fluoro-5′-(3-hydroxy-4-methoxyphenyl)-[3,4′-bipyridin]-2′-yl)piperidin-4-yl)amino)methyl)phenyl)-N-hydroxyacrylamide formate]
 | 19.3 | 17.1 | 29 | 2.2 | 16.8 | CC(C)(O)COc1ccc(-c2cnc(N3CCC(NCc4ccc(/C=C/C(=O)NO)nc4)CC3)c(CC#N)c2-c2ccc(C#N)c(F)c2)cc1O [Example 221, (E)-3-(5-(((1-(4-(4-Cyano-3-fluorophenyl)-3-(cyanomethyl)-5-(3-hydroxy-4-(2-hydroxy-2-methylpropoxy)phenyl)pyridin-2-yl)piperidin-4-yl)amino)methyl)pyridin-2-yl)-N-hydroxyacrylamide formate]
508 | 245 | 0.69 | 497 | 38.2 | 1.88 | COc1ccc(-c2c(C#N)cc(N3CCC(NCc4ccc(/C=C/C(=O)NO)cc4)CC3)nc2-c2ccc(C#N)c(F)c2)cc1O [Example 176, (E)-3-(4-(((1-(4-cyano-6-(4-cyano-3-fluorophenyl)-5-(3-hydroxy-4-methoxyphenyl)pyridin-2-yl)piperidin-4-yl)amino)methyl)phenyl)-N-hydroxyacrylamide formate]
 | 8.18 | 2.37 | 11.5 | 0.77 | 3.02 | COc1ccc(-c2cnc(N3CCC(NCc4ccc(/C=C(\F)C(=O)NO)cc4)CC3)c(C#N)c2-c2ccc(C#N)nc2)cc1O [Example 260, (Z)-3-(4-(((1-(3′,6-Dicyano-5′-(3-hydroxy-4-methoxyphenyl)-[3,4′-bipyridin]-2′-yl)piperidin-4-yl)amino)methyl)phenyl)-2-fluoro-N-hydroxyacrylamide dformate]
 | 1.84 | 25.4 | 5.12 | 0.89 | 2.2 | COc1ccc(-c2cnc(N3CCC(NCc4ccc(/C=C/C(=O)NO)cc4F)CC3)c(OC)c2-c2ccc(C#N)nc2)cc1O [Example 264, (E)-3-(4-(((1-(6-Cyano-5′-(3-hydroxy-4-methoxyphenyl)-3′-methoxy-[3,4′-bipyridin]-2′-yl)piperidin-4-yl)amino)methyl)-3-fluorophenyl)-N-hydroxyacrylamide formate]
 | 2.02 | 24.2 | 2.35 | 0.16 | 2.09 | COc1ccc(-c2cnc(N3CCC(NCc4ccc(/C=C/C(=O)NO)nc4)CC3)c(OC)c2-c2ccc(C#N)nc2)cc1O [Example 266, (E)-3-(5-(((1-(6-Cyano-5′-(3-hydroxy-4-methoxyphenyl)-3′-methoxy-[3,4′-bipyridin]-2′-yl)piperidin-4-yl)amino)methyl)pyridin-2-yl)-N-hydroxyacrylamide formate]
30.1 | 71.8 | 0.49 | 193 | 7.48 | 3.59 | CC(C)(O)Cn1nnc2cc(-c3cnc(N4CCC(NCc5ccc(/C=C/C(=O)NO)cc5)CC4)c(C#N)c3-c3ccc(C#N)c(F)c3)ccc21 [Example 197, (E)-3-(4-(((1-(3-Cyano-4-(4-cyano-3-fluorophenyl)-5-(1-(2-hydroxy-2-methylpropyl)-1H-benzo[d][1,2,3]triazol-5-yl)pyridin-2-yl)piperidin-4-yl)amino)methyl)phenyl)-N-hydroxyacrylamide formate]

The remaining lines, values behind:

SMILES | IC50 [1] [nM] | IC50 [2] [nM] | IC50 [3] [nM] | IC50 [4] [nM] | IC50 [5] [nM] | IC50 [6] [nM]
N#Cc1ccc(-c2c(-c3ccc(Cl)c(O)c3)cnc(N3CCC(NCc4cnc(/C=C/C(=O)NO)nc4)CC3)c2C#N)cc1F [Example 159, (E)-3-(5-(((1-(5-(4-Chloro-3-hydroxyphenyl)-3-cyano-4-(4-cyano-3-fluorophenyl)pyridin-2-yl)piperidin-4-yl)amino)methyl)pyrimidin-2-yl)-N-hydroxyacrylamide hydrochloride] | 83.5 | 17.9 | 1.82 | 16.1 | 2.71 | 3.5
COc1ccc(-c2cnc(N3CCC(NCc4ccc(/C=C/C(=O)NO)c(C#N)c4)CC3)c(C#N)c2-c2ccc(C#N)c(F)c2)cc1O [Example 162, (E)-3-(2-Cyano-4-((1-(3-cyano-4-(4-cyano-3-fluorophenyl)-5-(3-hydroxy-4-methoxyphenyl)pyridin-2-yl)piperidin-4-yl)amino)methyl) phenyl)-N-hydroxyacrylamide formate] | 209 | 21.7 | 0.4 | 18.5 | 3.34 | 2.98
COc1ccc(-c2cnc(N3CCC(NCc4ccc(/C=C/C(=O)NO)cc4F)CC3)c(C#N)c2-c2ccc(C#N)c(F)c2)cc1O [Example 154, (E)-3-(4-(((1-(3-Cyano-4-(4-cyano-3-fluorophenyl)-5-(3-hydroxy-4-methoxyphenyl)pyridin-2-yl)piperidin-4-yl)amino)methyl)-3-fluorophenyl)-N-hydroxyacrylamide hydrochloride] | 309 | 16.5 | 0.44 | 21.7 | 4.3 | 1.41
COc1ccc(-c2cnc(N3CCC(NCc4ccc(/C(C)=C/C(=O)NO)cc4)CC3)c(C#N)c2-c2ccc(C#N)c(F)c2)cc1O [Example 170, (E)-3-(4-(((1-(3-Cyano-4-(4-cyano-3-fluorophenyl)-5-(3-hydroxy-4-methoxyphenyl)pyridin-2-yl)piperidin-4-yl)amino)methyl)phenyl)-N-hydroxybut-2-enamide formate] | 62.7 | 27.6 | 0.43 | 27.5 | 2 | 1.28
COc1ccc(-c2cnc(N3CCC(NCc4ccc(/C=C(\F)C(=O)NO)cc4)CC3)c(C#N)c2-c2ccc(C#N)c(F)c2)cc1O [Example 171, (Z)-3-(4-(((1-(3-Cyano-4-(4-cyano-3-fluorophenyl)-5-(3-hydroxy-4-methoxyphenyl)pyridin-2-yl)piperidin-4-yl)amino)methyl)phenyl)-2-fluoro-N-hydroxyacrylamide formate] | 53.1 | 14.5 | 0.55 | 12.3 | 1.68 | 0.54
COc1ccc(-c2cnc(N3CCC(NCc4ccc(/C=C/C(=O)NO)cc4Cl)CC3)c(C#N)c2-c2ccc(C#N)c(F)c2)cc1O [Example 156, (E)-3-(3-Chloro-4-((1-(3-cyano-4-(4-cyano-3-fluorophenyl)-5-(3-hydroxy-4-methoxyphenyl)pyridin-2-yl)piperidin-4-yl)amino)methyl) phenyl)-N-hydroxyacrylamide formate] | 731 | 58.1 | 2.53 | 80.4 | 8.88 | 6.64
